Assay [1] addresses T1, human recombinant dopamine D4 receptor (Homo sapiens, UniProt P21917).
T1 sequence (P21917 1-419): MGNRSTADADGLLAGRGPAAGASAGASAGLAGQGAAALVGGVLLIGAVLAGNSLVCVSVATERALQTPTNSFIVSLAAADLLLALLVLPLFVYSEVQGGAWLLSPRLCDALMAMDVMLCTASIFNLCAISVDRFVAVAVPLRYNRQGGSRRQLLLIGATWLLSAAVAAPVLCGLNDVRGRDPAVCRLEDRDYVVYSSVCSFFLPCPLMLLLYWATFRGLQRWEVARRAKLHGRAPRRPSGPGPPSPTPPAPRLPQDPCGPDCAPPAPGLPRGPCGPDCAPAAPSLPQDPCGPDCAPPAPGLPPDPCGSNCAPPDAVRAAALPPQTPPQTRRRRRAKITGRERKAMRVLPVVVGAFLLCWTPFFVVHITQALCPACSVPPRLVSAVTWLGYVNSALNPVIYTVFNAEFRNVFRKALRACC
The settings on record: saturating concentrations of dopamine; read-out: D4 efficacy IC50 ± SEM; cited from earlier work.

A further assay has as its system PD model rats. In words: Stepping test (adjusting steps) in PD model rats. The assay is classed as in vivo, rat. The conditions noted are these: 6-OH-Busp 3 mg/kg, sc added to L-DOPA 10 mg/kg. Here is the method:
The stepping test (Schallert et al., 1992) was performed as described by Kirik et al., 2001 with little modifications. Briefly, the rat was held by the experimenter fixing its hindlimbs with one hand and the forelimb not to be monitored with the other, while the unrestrained forepaw was touching the table. The number of adjusting steps was counted, while the rat was moved sideways along the table surface (90 cm in 5 s), in the forehand and backhand direction, for both forelimbs, and the average of the steps in the two directions is considered.
30 male PD model rats were used for adjusting steps test with the following groups: • 1. Vehicle 1+Vehicle 2 (n=7) • 2. Vehicle 1+L-DOPA (10 mg/kg, sc) (n=7) • 3. 6-OH-Busp (3 mg/kg, sc)+Vehicle 2 (n=8) • 4. 6-OH-Busp (3 mg/kg, sc)+L-DOPA (10 mg/kg, sc)
The PD rats were handled for 3 consecutive days. Vehicle 1 or 6-OH-Busp will s.c. dosed 61 min before adjusting steps test. Vehicle 2 or L-DOPA/Benserazide dosed 60 min before adjusting steps test. On testing day, the rats were held by both hind limbs and the untested forepaw. The test forepaw was placed on a flat surface and dragged in the forehand direction for 90 cm distance over 5 s. The number of adjusting steps was counted for both paws in the backhand and forehand directions of movement. […] Data were analyzed and graphed by Graph Pad Prism 6.

For assay [2], the target named is human recombinant dopamine D2 receptor (Homo sapiens, UniProt P14416). The conditions noted are these: saturating concentrations of dopamine; read-out: D2 efficacy IC50 ± SEM; cited from earlier work.
The subject of assay [3] is L-DOPA induced dyskinesia (LID) model rats. In words: L-DOPA induced AIMs in 6-OHDA lesioned LID model rats. The assay is classed as in vivo, rat. An excerpt: Animals: 80 experimentally-naïve, male, 9 weeks old Sprague-Dawley rats at body weight of 200 to 250 g arrive at the laboratory at least 1 week prior to behavioural testing. Rats were housed in groups of n=2/cage. Animals had ad libitum access to standard rodent chow and water. Animal housing and testing rooms were maintained under controlled environmental conditions and were within close proximity of each other. Animal housing rooms were on a 12-hour light-dark cycle with lights on at 6:00 AM and maintained at 70° F./21° C. (range: 68-72° F./20-22° C.) with a humidity range of 20-40%. Testing rooms were maintained at 68-72° F. with a humidity range of 20-40%. DA (dopamine)-denervating lesions were performed by unilateral injection of 6-OHDA in the ascending nigrostriatal pathway. Rats were anesthetized with pentobarbital sodium 40 mg/kg (i.p.) and positioned in a stereotactic frame. 6-OHDA was injected into the right ascending DA bundle at the following coordinates relative to bregma and dural surface: A (anterior-posterior), L (lateral), V (dorsoventral): A −1.8, L −2.0, V −8.6, tooth bar 0.0.
The neurotoxin injections were performed at a rate of 1 ul/min, and the injection cannula is left in place for an additional 2-3 min thereafter. Two weeks after surgery, contralateral full body turns were recorded over 30 min, following s.c. injection of 0.5 mg/kg of apomorphine sulfate. The animals were placed in plastic Perspex bowls (30 cm in diameter) and the rotational behavior (360° turns) is recorded by an automated rotometer for […] after the s.c. injection of 0.5 mg/kg of apomorphine sulfate. Apomorphine (0.5 mg/kg, s.c.) induced contralateral rotation in unilateral 6-OHDA lesioned rats. 73 rats with rotations ≥180/30 min, indicating >90% DA lesion in nigrostriatal pathway, were chosen as the PD model rats for chronic L-DOPA treatment.
Starting one day after the apomorphine-induced rotation test, 6-OHDA-lesioned rats were treated with daily L-DOPA (Sigma-Aldrich, Germany) (8 mg/kg plus benserazide 15 mg/kg, s.c.) for 21 days. Rats were placed individually in transparent plastic cages without bedding material and scored every 20 min following the injection of L-DOPA for the entire time course of dyskinesias (120 min). The AIMs were classified into four subtypes according to their topographic distributions such as Locomotive, Forelimb, Axial and Orolingual behaviors. The severity of each AIM subtype was assessed by using scores from 0 to 4 (1: occasional, i.e. present less than 50% of the time; 2: frequent, i.e. present more than 50% of the time; 3: continuous, but interrupted by strong sensory stimuli; 4: continuous, not interrupted by strong sensory stimuli). In this study, rats with an AIMs≥28 were considered highly dyskinetic, while rats with an AIMs<28 either low or none-dyskinetic.
After chronic L-DOPA treatment on PD rats for 21 days, 42 LID model rats (348 g˜501 g, 15 weeks old) were successfully created with the criteria of total AIM scores (Lo+Li+AX+OI)≥28 points.
AIMs ratings were performed by an investigator who was kept unaware of the pharmacological treatment administered to each rat (experimentally blinded). In order to quantify the severity of the AIMs, rats were observed individually in their standard cages every 20th minute at 20-180 min after an injection of I-DOPA. The AIM's were classified into four subtypes:
Each of the four subtypes are scored on a severity scale from 0 to 4, where 0=absent, 1=present during less than half of the observation time, 2=present for more than half of the observation time, 3=present all the time but suppressible by external stimuli, and 4=present all the time and not suppressible by external stimuli. Axial, limb and orolingual AIMs are found to be modulated in a similar way by all the tested substances.
Rats were tested for AIMs using the sum of locomotive (LO) oraxial (AX), limb (LI), and orolingual (OL) AIM scores per testing session for statistical analyses. […]

Chain of human recombinant dopamine D2 receptor (P14416 whole entry): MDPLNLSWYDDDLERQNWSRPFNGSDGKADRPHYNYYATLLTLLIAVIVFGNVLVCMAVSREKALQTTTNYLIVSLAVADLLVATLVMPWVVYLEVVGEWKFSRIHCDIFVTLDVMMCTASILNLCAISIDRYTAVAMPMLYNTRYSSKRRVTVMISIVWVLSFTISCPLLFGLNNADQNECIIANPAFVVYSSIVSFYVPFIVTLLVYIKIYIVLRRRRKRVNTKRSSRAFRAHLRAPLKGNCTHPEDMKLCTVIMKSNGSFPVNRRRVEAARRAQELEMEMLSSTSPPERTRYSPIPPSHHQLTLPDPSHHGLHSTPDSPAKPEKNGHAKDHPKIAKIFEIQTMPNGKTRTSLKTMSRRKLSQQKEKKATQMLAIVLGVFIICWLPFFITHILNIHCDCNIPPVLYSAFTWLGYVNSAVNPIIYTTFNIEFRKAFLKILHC

A word on the IC50: it is the concentration that inhibits the measured activity by half. `O=C1CC2(CCCC2)C(O)C(=O)N1CCCCN1CCN(c2ncccn2)CC1` (racemic) [6-OH-Busp]: the 50% inhibitory concentration (IC50) in assay [1] was 850 ± 490 nM; in assay [2], 3.1 ± 1.8 µM. Further, the “effect on adjusting steps of adding 6-OH-Busp to L-DOPA” value in the assay on PD model rats is given as “no significant different effect”. Also, the “total AIMs sum” value in assay [3] (Example XII, 0.3, 1 and 3 mg/kg s.c.) is on record as “dose-dependently decreased”. Also, the “AIMs of LID rats at time points” value in assay [3] (Example XII, 0.3, 1 and 3 mg/kg s.c., 30 to 190 min after L-DOPA injection) was “dose-dependently decreased”; in assay [3] (Example XIII, 1 mg/kg s.c., 50 min and 70 min after L-DOPA injection) it was “did not significantly decrease”; in assay [3] (Example XIII, 3 mg/kg s.c., 50 to 190 min), “significantly decreased”; in assay [3] (Example XIV, 1 mg/kg s.c. alone, 90 min and 110 min after L-DOPA injection) it was “did not have significant effects”. The “AUC of total AIMs from 10 min to 190 min” value in assay [3] (Example XII, buspirone 1 mg/kg s.c., 6-OH-Busp 0.3, 1 and 3 mg/kg s.c., vs vehicle) is “dose-dependently decreased”.

(Values after US11478476B2 (CONTERA PHARMA APS, priority 2014, dated 2022).)
